Reference: PMC10567917 (Archives of Toxicology, 2023)
Several values for one entry are separate records, joined by “and”; a condition that tells them apart may be missing. Equal entries are not always repeated.

How the values were obtained:
[1] = test system: primary mouse hepatocytes
[2] = test system: primary human hepatocytes; format: in vitro ADME
[3] = test system: primary rat hepatocytes
[4] = test system: primary human hepatocytes
[5] = test system: intracellular proteins of primary human hepatocytes
[6] = test system: rainbow trout; conditions: in vivo; cited from earlier work

## COc1cc2c(c3oc(=O)c4c(c13)CCC4=O)[C@@H]1C=CO[C@@H]1O2 [AFB1, Aflatoxin B1]
[1]
  AFB1 in culture medium: no longer detectable
  AFB1 remaining in culture medium: 0.2 µM
  time up to which AFB1 was detectable in culture medium: up to 6 h
[2]
  estimated intracellular concentration of AFB1: 1 mM
[3]
  AFB1 remaining in culture medium: 3.48 µM
[4]
  AFB1 remaining in culture medium: 8.54 µM
  concentration in culture medium: 636 nM

## COc1cc2c(c3oc(=O)c4c(c13)CCC4=O)[C@H]1[C@@H](O2)OC(SCC(NC(=O)CCC(N)C(=O)O)C(=O)NCC(=O)O)[C@@H]1O (stereo partly shown) [AFB1-GSH, AFB1-glutathione]
[2]
  intracellular detection: not detected
[3]
  concentration in culture medium: 72 nM
  concentration in culture medium (plateau): 415 nM
[4]
  detection in culture medium: not detected

## COc1cc(O)c(C2=CC(=O)N(CCCC[C@H](N)C(=O)O)C2)c2oc(=O)c3c(c12)CCC3=O [AFB1-Lys, AFB1-lysine]
[3]
  detection in culture medium: detected only in trace amounts
[5]
  AFB1-Lys in proteins of cell lysate: around 1.0 pmol

## COc1cc2c(c3oc(=O)c4c(c13)CCC4=O)[C@H]1[C@@H](O2)OC(SCC(NC(C)=O)C(=O)O)[C@@H]1O (stereo partly shown) [AFB1-NAC, AFB1-N-acetylcysteine]
[4]
  detection in culture medium: not detected

## COc1cc2c(c3oc(=O)c4c(c13)CCC4=O)C1(O)C=COC1O2 (stereo not shown) [AFM1, aflatoxin M1]
[1]
  maximum concentration in culture medium: 353 nM
[4]
  concentration in culture medium: 33 nM and 46 nM

## O=C1CCc2c1c(=O)oc1c3c(cc(O)c21)O[C@H]1OC=C[C@@H]31 [AFP1, aflatoxin P1]
[1]
  maximum concentration in culture medium: 896 nM
[3]
  detection in culture medium: detected only in trace amounts
[4]
  detection in culture medium: just formed in trace amounts

## O=C1CCc2c1c(=O)oc1c3c(cc(O[C@@H]4O[C@H](C(=O)O)[C@@H](O)[C@H](O)[C@H]4O)c21)O[C@H]1OC=C[C@@H]31 [AFP1-Glc, AFP1 glucuronide]
[1]
  AFP1-Glc level in mouse samples relative to rat samples: about 100 fold
[4]
  detection of AFP1-Glc: no AFP1-Glc was detectable

## COc1cc2c(c3oc(=O)c4c(c13)[C@@H](O)CC4=O)[C@@H]1C=CO[C@@H]1O2 [AFQ1, aflatoxin Q1]
[1]
  maximum concentration in culture medium: 25 nM
[6]
  carcinogenic potency relative to AFB1: about 1%
[3]
  Formation rate: 87 pmol/h and 74 700 pmol/h
  concentration in culture medium: 112 nM
